In patent publication US9974771B2 (priority 2016, dated 2018):
Like-named read-outs stand apart in the source and are kept apart here.

Legend:
LC3-II [1] = format: cell-based, mouse
[2] = tested on: PrP^Sc in persistently prion (strain 22L) infected ScCAD5 cells; format: cell-based, mouse; conditions: AR-12 1-5 μM, 72 hours, ScCAD5 22L; FIG. 3A
[3] = tested on: PrP^Sc in ScMEFs infected with prion strains 22L, Me7 or RML; format: cell-based, mouse; conditions: AR-12 3 μM, 72 hours, ScMEF strains 22L, FIG. 4A
LC3-II [4] = format: cell-based, mouse; remark: listed apart in the source
[5] = tested on: PrP^Sc in Atg5-KO ScN2a cells (strain 22L); format: cell-based, mouse
[6] = tested on: PrP^Sc in persistently prion (strain 22L) infected ScN2a cells; format: cell-based, mouse

Compound | LC3-II levels (LC3-II [1]) | PrP^Sc levels (+PK) [2] | XTT toxicity at concentrations used (ScMEF cells) | XTT toxicity at concentrations used (ScCAD5 cells) | PrP^Sc (+PK) [3] | XTT toxicity at concentrations used (ScN2a cells) | LC3-II induction (LC3-II [4]) | reduction of PrP^Sc (+PK) [5] | reduction of PrP^Sc (+PK) ([6]; AR-12 3 μM, 3 days (72 hours), ScN2a 22L, vs DMSO, FIG. 2A) [%] | reduction of PrP^Sc (+PK) ([6]; AR-12 3 μM, 72 hours, wild-type ScN2a cells, FIG. 8B) [%] | LC3-II induction, comparison of cell lines (LC3-II [1]) | reduction of PrP^Sc (+PK) ([6]; AR-14 2 μM, 72 hours, wild-type ScN2a cells, FIG. 8C) [%] | reduction of PrP^Sc (+PK) ([6]; AR-14 at a concentration of 2, 3 days (72 hours), ScN2a 22L, FIG. 5A) [%] | concentration at which already effective in reducing PrP^Sc ([6]; AR-14 tested at 0.5, 0.75 and 1.0 μM, 72 hours, ScN2a 22L, FIG. 5C) [µM]
bafilomycin A1 [BA1, reference compound] | highest expression level of LC3-II | – | – | – | – | – | – | – | – | – | – | – | – | –
NCC(=O)Nc1ccc(-n2nc(C(F)(F)F)cc2-c2ccc3c(ccc4ccccc43)c2)cc1 [AR-12, 2-amino-N-(4-(5-(phenanthren-2-yl)-3-(trifluoromethyl)-1H-pyrazol-1-yl)phenyl)acetamide] | time dependent and pronounced increase in LC3-II levels | reduced, although slightly less than in ScN2a cells | non-toxic concentrations | non-toxic concentrations | strongly reduced | non-toxic concentrations | about 2 fold | about 50% | 100 | ≥ 90 | lowest induction was found in CAD5 cells | – | – | –
NCCCC[C@H](N)C(=O)Nc1ccc(-n2nc(C(F)(F)F)cc2-c2ccc3c(ccc4ccccc43)c2)cc1 [AR-14] | time dependent and pronounced increase in LC3-II levels | – | – | – | – | non-toxic concentrations | – | about 50% | – | – | lowest induction was found in CAD5 cells | 100 | 100 | 0.75
